# Measured values as given in paper PMC11009648, “Development of an orally bioavailable mSWI/SNF ATPase degrader and acquired mechanisms of resistance in prostate cancer” (Proceedings of the National Academy of Sciences of the …, 2024).
# Assays:
# [1] = In vivo pharmacokinetics in rats; details: plasma; for Cmax: read-out: Cmax/C0
# Excerpt: All experimental procedures relating to animal care, handling, and treatment were approved by the Institutional Animal Ethics Committee of Aurigene Oncology Ltd. based on the Committee for Control and Supervision of Experiments on Animals guidelines. Animals were included for experimentation after 1 wk of acclimatization to standard laboratory conditions and were provided with reverse osmosis-treated water and rodent pellet diet ad libitum.
# The pharmacokinetic profile of AU-24118 was studied in both mice and rats. For assessment of oral bioavailability, AU-24118 was administered by intravenous (i.v.) and oral (p.o.) routes at 1 mg/kg and 30 mg/kg doses, respectively (n = 3). For the oral arm, AU-24118 was administered as a solution formulation in 10% PEG200, 50% of 20% D-α-Tocopherol polyethylene glycol 1000 succinate and 40% of 1% Tween-80 in water while AU-24118 was formulated in 2% DMA and 10% HPβCD in saline (qs) for the intravenous administration.
# Concentrations of AU-24118 were determined in plasma samples using a nonvalidated (fit for purpose) LC–MS/MS method in positive Multiple Reaction Monitoring mode with transition pair of m/z: 633.11→344.00. Either Carbamazepine (with a transition pair of m/z: 237.07→194.10) or Telmisartan (with a transition pair of m/z: 515.16→276.00) were used as internal standards. Sample processing was carried out by protein precipitation followed by evaporation method. Compound concentrations were calculated using Analyst® software 1.7.2 with linear/quadratic regression algorithm (with 1/×2 weighting factor) over a quantification range of 1 ng/mL to 2,500 ng/mL with the low and high ends of this range defining the lower limit of quantitation and upper limit of quantitation, respectively.
# [2] = tested on: mutant forms of SMARCA4 in HEK293 cells; assay: Immunoblot of overexpressed flag-tagged mutant SMARCA4 in HEK293 cells; assay type: cell-based, human; details: 24 h treatment
# Excerpt: GFP-SMARCA4 (Addgene, 65391) was used for the SMARCA4 mutation clone. The pLVX-TetOne-Puro-hAXL (Addgene, 124797) backbone was used as a starting point prior to undergoing a series of modifications. The endogenous target gene was removed, and a multiple cloning site (MCS) was inserted downstream of the endogenous promoter. Custom gblocks containing Flag-tagged WT SMARCA4 were synthesized (Integrated DNA Technologies, IDT) and inserted into the MCS. Subsequently, custom gblocks containing SMARCA4-N1540S, SMARCA4-I1551del, or SMARCA4-F1485S were inserted to replace the respective portion of WT SMARCA4. Finally, the TRE3G promoter was replaced with hPGK.
# HEK293 cells were seeded overnight and transfected with Lipofectamine 3,000 (Thermo Fisher) according to the manufacturer’s protocol. Media were changed 8 h post transfection and incubated for 48 h prior to conducting further analyses.
# [3] = tested on: proteome of VCaP cells (SMARCA2, SMARCA4, PBRM1); assay: TMT mass spectrometry proteomics of VCaP cells; assay type: cell-based, human
# Protocol: Cells were plated at 5 × 10^6 cells per well in a 6-well plate overnight prior to treatment with DMSO, 100 nM AU-24118, or 1 μM AU-15330 for 2 h. Whole cell lysates were prepared in RIPA buffer (Thermo Fisher) supplemented with tablets of cOmpleteTM protease inhibitor cocktail (Sigma-Aldrich). For each condition, 75 µg of total protein was labeled with TMT isobaric Label Reagent (Thermo Fisher) according to the manufacturer’s protocol and subjected to 12 fractions of liquid chromatography–MS (LC–MS)/MS analysis.
# [4] = In vivo pharmacokinetics in mice; details: mouse, plasma, oral, dose escalation (Fig. 1G)
# 22Rv1 AUR-3 cells = assay: CellTiter-Glo cell viability assay in AU-15330-resistant 22Rv1 AUR-3 cells (ABCB1 overexpression); assay type: cell-based, human
# Excerpt: The rising importance of the mSWI/SNF complex as a therapeutic target and the success ([32], [33]) of developing next-generation PROTAC degraders targeting the mSWI/SNF complex prompted us to proactively study potential resistance mechanisms that cancer cells may develop in response to this class of compounds. To achieve this, we cultured 22Rv1 cells in either DMSO or a lethal dose of AU-15330 for 1 mo, refreshing the drug twice a week, until resistant cells emerged. Upon obtaining a population of resistant cells, we unbiasedly characterized the genomic and transcriptomic alterations using whole-exome sequencing and bulk RNA sequencing (RNA-seq), respectively (Fig. 3A).
# Cells were seeded onto 96-well plates in appropriate culture media and allowed to adhere overnight prior to treatment. The next day, a nine-point serial dilution of the compounds was prepared and added to the plates. After treatment, the cells were then incubated for an additional 5 d. On the last day of treatment, the CellTiter-Glo cell viability assay (Promega) was then executed in accordance with the manufacturer’s guidelines. The signal (luminescence) from each well was determined using an Infinite M1000 Pro plate reader (Tecan). Relative viability was determined by dividing the signal from each well by the average of the control condition in each experiment. Finally, the data were analyzed and plotted using GraphPad Prism.
compound,measurement,setting,value
Nc1nnc(-c2ccccc2O)cc1-c1ccc(N2CCC(N3CCC(c4ccc(OC5CCC(=O)NC5=O)cc4)CC3)CC2)cc1 (centres unmarked) [AU-24118],bioavailability,"[1]; Wistar, rat, oral, rats, i.v. 1 mg/kg, p.o. 30 mg/kg, read-out: Oral bioavailability (%F)",16.3%
same,AUC(0-inf),"[1]; iv, Wistar Rat, I.V. 1mg/kg",756 ng·h/mL
same,AUC(0-t),"[1]; iv, Wistar Rat, I.V. 1mg/kg",670 ng·h/mL
same,half-life,"[1]; iv, Wistar Rat, I.V. 1mg/kg, read-out: Beta t1/2 (converted)",8.02 h
same,clearance,"[1]; iv, Wistar Rat, I.V. 1mg/kg, read-out: CI (Clearance)",22.1 mL/min/kg
same,Cmax,"[1]; iv, Wistar Rat, I.V. 1mg/kg",96.2 ng/mL
same,Vd,"[1]; iv, Wistar Rat, I.V. 1mg/kg, read-out: Vdss",13.3 L/kg
same,AUC(0-t),"[1]; po, Wistar Rat, P.O. 30mg/kg",3280 ng·h/mL
same,Cmax,"[1]; po, Wistar Rat, P.O. 30mg/kg",184 ng/mL
same,"degradation of overexpressed mutant SMARCA4, immunoblot",[2],resistant to degradation
same,"selectivity of degradation, MS-based proteomics","[3]; VCaP cells, 100 nM AU-24118, 2 h","selectively degraded SMARCA2, SMARCA4, and PBRM1"
same,"degradation of IMiD neosubstrates, proteomics",[3]; human cell line (VCaP),"not found to degrade any canonical immunomodulatory imide drug (IMiD) neosubstrates such as IKZF1, IKZF3, and GSPT1"
same,AUC(0-t),[4]; 10mg/kg,4930 ng·h/mL
same,AUC(0-t),[4]; 100mg/kg,32200 ng·h/mL
same,Cmax,"[4]; 100mg/kg, read-out: Cmax/C0",1930 ng/mL
same,sensitivity of AUR-3 cells versus WT,22Rv1 AUR-3 cells; 22Rv1 AUR-3 cells (Fig. S5 E and F),dramatically less sensitive
same,IC50,"22Rv1 AUR-3 cells; Homo sapiens, 22Rv1, Fig. S5F, 22Rv1 AUR-3",458 nM
